Laboratory results reported in US6796312B2, “Process and apparatus for the removal of toxic components of tobacco smoke and the standardization of the health hazards related to those components” (priority 2001, dated 2004).

Experiment: Non-enzymatic oxidation of NADH2 by aged NDGA solutions
Procedure: Oxidation of reduced nicotinamide-adenine dinucleotide by nordihydroguaiaretic acid in the presence of PO4 buffer at pH 7.0 occurs at a slow rate, (See Burk and Woods (1963) and references to findings of […]. and […]. reported therein). Although this oxidation was very small under the conditions of experiment, an interaction correction factor was determined and applied to all reduced nicotinamide-adenine dinucleotide-nordihydroguaiaretic acid-mycloperoxidase assay reactions. [table] The effect of aging nordihydroguaiaretic acid solutions (0.5 mg. nordihydroguaiaretic acid dissolved in 0.02 ml. of ethyl alcohol plus 0.98 ml. of 0.15 Molar Na2HPO4.KH2PO4 buffer, pH 7.0) on the oxidation of reduced nicotinamide-adenine dinucleotide by nordihydroguaiaretic acid is shown above in Table VI. At 35° C., the latter undergoes a slow visible auto-oxidation change, from a near colorless solution (the reduced form of the orthoquinone) immediately after preparation, to a yellow brown colloidal suspension (probably the quinone form) with the yellow-brown material tending to precipitate slowly during the course of several hours. The sedimentation of nordihydroguaiaretic acid and its accumulation and adherence upon the inner glass surface of test tubes was avoided by shaking the solution periodically. The slow oxidation of reduced nicotinamide-adenine dinucleotide by nordihydroguaiaretic acid during the first forty-five (45) minutes can be more than twice the rate of subsequent time periods. Once the lowest rate of oxidation of reduced nicotinamide-adenine dinucleotide is achieved by the aging of nordihydroguaiaretic acid solutions, it remains constant for at least eight (8) hours.

Question: What does the source list for `CC(Cc1ccc(O)c(O)c1)C(C)Cc1ccc(O)c(O)c1` (stereo not drawn) [NDGA, beta, gamma-dimethyl-alpha, ortho-bis (3,4 dihydroxiphenyl) butane]?
Answer: Rate of Oxidation of NADH2 (NDGA solution aged 10 minutes at 35° C., pH 7.0, Experiment 3): .017 Optical Density (O.D.) Units per 100 Seconds; Rate of Oxidation of NADH2 (NDGA solution aged 15 minutes, Experiment 2): .020 Optical Density (O.D.) Units per 100 Seconds; Rate of Oxidation of NADH2 (NDGA solution aged 45 minutes, Experiment 1): .027 Optical Density (O.D.) Units per 100 Seconds; Rate of Oxidation of NADH2 (NDGA solution aged 60 minutes, Experiment 3): .013 Optical Density (O.D.) Units per 100 Seconds; Rate of Oxidation of NADH2 (NDGA solution aged 110 minutes, Experiment 1): .011 Optical Density (O.D.) Units per 100 Seconds; Rate of Oxidation of NADH2 (NDGA solution aged 120 minutes, Experiment 3): .011 Optical Density (O.D.) Units per 100 Seconds; Rate of Oxidation of NADH2 (NDGA solution aged 140 minutes, Experiment 2): .014 Optical Density (O.D.) Units per 100 Seconds; Rate of Oxidation of NADH2 (NDGA solution aged 175 minutes, Experiment 1): .012 Optical Density (O.D.) Units per 100 Seconds; Rate of Oxidation of NADH2 (NDGA solution aged 180 minutes, Experiment 3): .012 Optical Density (O.D.) Units per 100 Seconds; Rate of Oxidation of NADH2 (NDGA solution aged 215 minutes, Experiment 2): .014 Optical Density (O.D.) Units per 100 Seconds; Rate of Oxidation of NADH2 (NDGA solution aged 240 minutes, Experiment 3): .012 Optical Density (O.D.) Units per 100 Seconds; Rate of Oxidation of NADH2 (NDGA solution aged 270 minutes, Experiment 1): .011 Optical Density (O.D.) Units per 100 Seconds; Rate of Oxidation of NADH2 (NDGA solution aged 285 minutes, Experiment 2): .014 Optical Density (O.D.) Units per 100 Seconds; Rate of Oxidation of NADH2 (NDGA solution aged 323 minutes, Experiment 1): .011 Optical Density (O.D.) Units per 100 Seconds; Rate of Oxidation of NADH2 (NDGA solution aged 380 minutes, Experiment 3): .011 Optical Density (O.D.) Units per 100 Seconds; Rate of Oxidation of NADH2 (NDGA solution aged 440 minutes, Experiment 3): .011 Optical Density (O.D.) Units per 100 Seconds; Rate of Oxidation of NADH2 (NDGA solution aged 485 minutes, Experiment 3): .010 Optical Density (O.D.) Units per 100 Seconds
